Data published in ChEMBL document CHEMBL2440076, “New triarylpyrazoles as broad-spectrum anticancer agents: design, synthesis, and biological evaluation” (Eur J Med Chem, 2013).

What was measured:
[1] = system: OVCAR-3; assay: Growth inhibition of human OVCAR3 cells assessed as cell growth at 10 uM after 48 hrs by sulforhodamine B assay; type: functional; conditions: OVCAR-3, 48 h, read-out: Activity
[2] = system: HCT-15; assay: Growth inhibition of human HCT15 cells after 48 hrs by sulforhodamine B assay; type: functional; conditions: HCT-15, 48 h
[3] = system: M14; assay: Growth inhibition of human M14 cells after 48 hrs by sulforhodamine B assay; type: functional; conditions: M14, 48 h
[4] = system: NCI-H460; assay: Growth inhibition of human NCI-H460 cells after 48 hrs by sulforhodamine B assay; type: functional; conditions: NCI-H460, 48 h
[5] = system: CAKI-1; assay: Growth inhibition of human CAKI-1 cells after 48 hrs by sulforhodamine B assay; type: functional; conditions: CAKI-1, 48 h
[6] = system: NCI-H522; assay: Growth inhibition of human NCI-H522 cells assessed as cell growth at 10 uM after 48 hrs by sulforhodamine B assay; type: functional; conditions: NCI-H522, 48 h, read-out: Activity
[7] = system: SK-OV-3; assay: Growth inhibition of human SKOV3 cells assessed as cell growth at 10 uM after 48 hrs by sulforhodamine B assay; type: functional; conditions: SK-OV-3, 48 h, read-out: Activity
[8] = Growth inhibition of human NCI-ADR-RES cells after 48 hrs by sulforhodamine B assay; type: functional
[9] = system: OVCAR-8; assay: Growth inhibition of human OVCAR8 cells assessed as cell growth at 10 uM after 48 hrs by sulforhodamine B assay; type: functional; conditions: OVCAR-8, 48 h, read-out: Activity
[10] = system: PC-3; assay: Growth inhibition of human PC3 cells assessed as cell growth at 10 uM after 48 hrs by sulforhodamine B assay; type: functional; conditions: PC-3, 48 h, read-out: Activity
[11] = system: U-251; assay: Growth inhibition of human U251 cells assessed as cell growth at 10 uM after 48 hrs by sulforhodamine B assay; type: functional; conditions: U-251, 48 h, read-out: Activity
[12] = system: COLO 205; assay: Growth inhibition of human COLO205 cells assessed as cell growth at 10 uM after 48 hrs by sulforhodamine B assay; type: functional; conditions: COLO 205, 48 h, read-out: Activity
[13] = system: T47D; assay: Growth inhibition of human T47D cells assessed as cell growth at 10 uM after 48 hrs by sulforhodamine B assay; type: functional; conditions: read-out: Activity
[14] = system: UO-31; assay: Growth inhibition of human UO31 cells after 48 hrs by sulforhodamine B assay; type: functional; conditions: UO-31, 48 h
[15] = system: HL-60(TB); assay: Growth inhibition of human HL-60(TB) cells assessed as cell growth at 10 uM after 48 hrs by sulforhodamine B assay; type: functional; conditions: HL-60, 48 h, read-out: Activity
[16] = system: OVCAR-5; assay: Growth inhibition of human OVCAR5 cells assessed as cell growth at 10 uM after 48 hrs by sulforhodamine B assay; type: functional; conditions: OVCAR-5, 48 h, read-out: Activity
[17] = system: OVCAR-5; assay: Growth inhibition of human OVCAR5 cells after 48 hrs by sulforhodamine B assay; type: functional; conditions: OVCAR-5, 48 h
[18] = system: OVCAR-8; assay: Growth inhibition of human OVCAR8 cells after 48 hrs by sulforhodamine B assay; type: functional; conditions: OVCAR-8, 48 h
[19] = system: HOP-62; assay: Growth inhibition of human HOP62 cells assessed as cell growth at 10 uM after 48 hrs by sulforhodamine B assay; type: functional; conditions: HOP-62, 48 h, read-out: Activity
[20] = system: UO-31; assay: Growth inhibition of human UO31 cells assessed as cell growth at 10 uM after 48 hrs by sulforhodamine B assay; type: functional; conditions: UO-31, 48 h, read-out: Activity
[21] = system: SK-MEL-5; assay: Growth inhibition of human SK-MEL-5 cells after 48 hrs by sulforhodamine B assay; type: functional; conditions: SK-MEL-5, 48 h
[22] = Growth inhibition of human Hs 578T cells assessed as cell growth at 10 uM after 48 hrs by sulforhodamine B assay; type: functional; conditions: read-out: Activity
[23] = system: U-251; assay: Growth inhibition of human U251 cells after 48 hrs by sulforhodamine B assay; type: functional; conditions: U-251, 48 h
[24] = system: MDA-MB-435; assay: Growth inhibition of human MDA-MB-435 cells after 48 hrs by sulforhodamine B assay; type: functional, cell-based; conditions: MDA-MB-435, 48 h
[25] = system: SF-268; assay: Growth inhibition of human SF268 cells after 48 hrs by sulforhodamine B assay; type: functional; conditions: SF-268, 48 h
[26] = system: SF-268; assay: Growth inhibition of human SF268 cells assessed as cell growth at 10 uM after 48 hrs by sulforhodamine B assay; type: functional; conditions: SF-268, 48 h, read-out: Activity
[27] = system: Malme-3M; assay: Growth inhibition of human MALME-3M cells after 48 hrs by sulforhodamine B assay; type: functional
[28] = system: HOP-62; assay: Growth inhibition of human HOP62 cells after 48 hrs by sulforhodamine B assay; type: functional; conditions: HOP-62, 48 h
[29] = Growth inhibition of human NCI-ADR-RES cells assessed as cell growth at 10 uM after 48 hrs by sulforhodamine B assay; type: functional; conditions: read-out: Activity
[30] = system: 786-0; assay: Growth inhibition of human 786-0 cells after 48 hrs by sulforhodamine B assay; type: functional; conditions: 786-0, 48 h
[31] = system: NCI-H23; assay: Growth inhibition of human NCI-H23 cells after 48 hrs by sulforhodamine B assay; type: functional; conditions: NCI-H23, 48 h
[32] = system: CCRF-CEM; assay: Growth inhibition of human CCRF-CEM cells after 48 hrs by sulforhodamine B assay; type: functional
[33] = system: MOLT-4; assay: Growth inhibition of human MOLT4 cells after 48 hrs by sulforhodamine B assay; type: functional; conditions: MOLT-4, 48 h
[34] = system: OVCAR-4; assay: Growth inhibition of human OVCAR4 cells after 48 hrs by sulforhodamine B assay; type: functional; conditions: OVCAR-4, 48 h
[35] = system: SR; assay: Growth inhibition of human SR cells after 48 hrs by sulforhodamine B assay; type: functional
[36] = read-out: LC50 (the source's name)

SMILES: COc1cc(-c2nn(-c3cccc(NC(=O)Nc4cccc(C(F)(F)F)c4)c3)cc2-c2ccncc2)ccc1Cl
- growth at 10 µM [1]: -42%
- GI50 [2]: 0.87 µM
- LC50 [2]: 50 µM
- TGI [2]: 5.42 µM
- GI50 [3]: 0.754 µM
- LC50 (concentration killing 50% of cells) [3]: 4.65 µM
- TGI [3]: 1.87 µM
- GI50 [4]: 0.763 µM
- LC50 [4]: > 50 µM
- TGI [4]: 3.53 µM
- GI50 [5]: 1.03 µM
- TGI [5]: 3.51 µM
- CC50 [5, 36]: > 50 µM
- growth at 10 µM [6]: -30.8%
- growth at 10 µM [7]: 4.13%
- GI50 [8]: 0.783 µM
- TGI [8]: 3.64 µM
- CC50 [8, 36]: > 50 µM
- growth at 10 µM [9]: -36.2%
- growth at 10 µM [10]: -23%
- growth at 10 µM [11]: -82.2%
- growth at 10 µM [12]: -88.9%
- growth at 10 µM [13]: -4.03%
- GI50 [14]: 0.702 µM
- TGI [14]: 3.21 µM
- CC50 [14, 36]: > 50 µM
- growth at 10 µM [15]: -18.7%
- growth at 10 µM [16]: 28.2%
- GI50 [17]: 1.27 µM
- LC50 (concentration killing 50% of cells) [17]: > 50 µM
- TGI [17]: 6.45 µM
- GI50 [18]: 0.739 µM
- TGI [18]: 2.7 µM
- CC50 [18, 36]: > 50 µM
- growth at 10 µM [19]: -29.9%
- growth at 10 µM [20]: 7.94%
- GI50 [21]: 0.72 µM
- LC50 (concentration killing 50% of cells) [21]: 2.68 µM
- TGI [21]: 1.39 µM
- growth at 10 µM [22]: -13.7%
- GI50 [23]: 0.645 µM
- LC50 (concentration killing 50% of cells) [23]: 2.92 µM
- TGI [23]: 1.37 µM
- GI50 [24]: 0.866 µM
- IC50 [24]: 0.87 µM
- TGI [24]: 2.14 µM
- CC50 [24, 36]: 8.07 µM
- GI50 [25]: 1.36 µM
- TGI [25]: 5.43 µM
- CC50 [25, 36]: 50 µM
- growth at 10 µM [26]: 2.35%
- GI50 [27]: 1.05 µM
- LC50 (concentration killing 50% of starting cells) [27]: 33.9 µM
- TGI [27]: 2.41 µM
- GI50 [28]: 1.34 µM
- TGI [28]: 4.07 µM
- CC50 [28, 36]: > 50 µM
- growth at 10 µM [29]: -11.9%
- GI50 [30]: 1.28 µM
- TGI [30]: 4.05 µM
- CC50 [30, 36]: > 50 µM
- GI50 [31]: 1.18 µM
- LC50 [31]: > 50 µM
- TGI [31]: 3.41 µM
- GI50 [32]: 0.945 µM
- LC50 [32]: > 50 µM
- GI50 [33]: 0.936 µM
- TGI [33]: 3.48 µM
- CC50 [33, 36]: > 50 µM
- GI50 [34]: 1.1 µM
- LC50 (concentration killing 50% of cells) [34]: > 50 µM
- TGI [34]: 2.1 µM
- GI50 [35]: 0.886 µM
- TGI [35]: 2.84 µM
- CC50 [35, 36]: > 50 µM
